Laboratory results published in PMC9959265, “Permethrin as a Potential Furin Inhibitor through a Novel Non-Competitive Allosteric Inhibition” (Molecules, 2023).

Assays:
Hep-G2 cells = assay: Cellular cytotoxicity (CCK8), Hep-G2; assay type: cell-based, human; conditions: Hep-G2 (high furin expression), 24 or 48 h
Experimental: (§1) Furin is highly expressed in liver cancer cells and has specific effects on hepatocellular carcinoma. Therefore, human hepatocellular carcinoma cells Hep-G2 were selected as experimental cells, cervical carcinoma cells HeLa with similar furin expression in Hep-G2 were selected as control, and human permanent hepatocytes L-02 were selected as negative control. DMEM was used for HeLa, and 1640 medium was used for Hep-G2 and L-02. After incubation for 24 h with 100 μL complete medium in 96-well plates with 8000 cells per well, the medium was aspirated, 100 μL serum-free medium containing a concentration gradient of the compound was added and the samples were incubated. After 24 or 48 h the drug-containing medium was aspirated and 100 μL medium solution containing 10% CCK8 was added, subsequently, the absorbance was measured at 450 nm using a microplate reader after 1 h of incubation.

furin [1] = molecular target: T1, furin (Homo sapiens, UniProt P09958); assay: Furin activity / inhibitor screening assay with Boc-R-V-R-R-AMC substrate; assay type: biochemical; set-up: His tag; host or cells: E. coli BL21 (DE3)
Experimental: Boc-Arg-Val-Arg-Arg-AMC (Boc-R-V-R-R-AMC) was used as a substrate for the detection of furin. It carries an AMC ([…]) moiety that fluoresces at an excitation wavelength of 370 nm and an emission wavelength of 460 nm.
The reaction was then incubated for 90 min at 37 °C, supplemented with 40 μM substrate, quenched using 1% formic acid and the enzyme activity was monitored using a Thermo Scientific Varioskan Flash Multi-Mode Microplate Reader.

L-02 cells = assay: Cellular cytotoxicity (CCK8), L-02; assay type: cell-based, human; conditions: L-02 normal liver cells (low furin expression), 24 or 48 h
Experimental: as §1

trypsin = assay: Inhibition effect on trypsin (control protease); assay type: biochemical; conditions: Figure S1E
furin [2] = molecular target: T1, furin
Experimental: For the measurement of enzymatic kinetics and inhibition kinetics, the substrate concentration gradients were set to 0 μM, 2 μM, 5 μM, 10 μM, 20 μM, 40 μM, 60 μM, 80 μM, 100 μM, 120 μM, and the compound concentration gradients to 0 μM, 25 μM, 50 μM, 100 μM. Furin was added to 100 mM HEPES assay system buffer (pH 6.0, containing 0.5% Triton X-100 and 5 mM CaCl2), followed by different concentrations of the compounds to be tested, preincubated at 37 °C for 5 min. Different concentrations of the substrate were added; the sample was incubated at 37 °C for 35 min, and quenched with 1% formic acid. The initial rate of the enzymatic reaction of furin was tested and the curve was plotted.

HeLa cells = assay: Cellular cytotoxicity (CCK8), HeLa; assay type: cell-based; conditions: HeLa (high furin expression), 24 or 48 h
Experimental: as §1

T1 sequence (P09958 108-574 limits assumed): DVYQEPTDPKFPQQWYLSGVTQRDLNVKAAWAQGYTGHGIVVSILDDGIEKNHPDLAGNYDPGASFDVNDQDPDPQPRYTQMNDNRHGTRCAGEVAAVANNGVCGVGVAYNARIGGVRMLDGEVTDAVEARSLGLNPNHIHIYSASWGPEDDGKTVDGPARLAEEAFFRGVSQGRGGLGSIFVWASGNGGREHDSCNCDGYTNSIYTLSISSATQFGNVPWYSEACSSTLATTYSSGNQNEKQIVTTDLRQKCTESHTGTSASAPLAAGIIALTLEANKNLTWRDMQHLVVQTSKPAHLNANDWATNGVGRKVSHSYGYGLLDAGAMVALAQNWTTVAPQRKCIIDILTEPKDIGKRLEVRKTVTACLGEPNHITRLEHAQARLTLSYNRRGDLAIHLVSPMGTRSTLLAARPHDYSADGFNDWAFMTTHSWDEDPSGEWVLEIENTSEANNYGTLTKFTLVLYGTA

CC1(C)C(C=C(Cl)Cl)C1C(=O)OCc1cccc(Oc2ccccc2)c1 (stereo not drawn) [YJJ-B0887, permethrin]
cytotoxic effect (Hep-G2 cells): stronger cytotoxic effect | inhibition at 50 µM (furin [1]; 50 μM compound, read-out: Inhibition Rate (50 μM)): 55.9% | IC50 (furin [1]; furin, 40 μM Boc-R-V-R-R-AMC, pH 6.0, 37 °C): 38.7 µM | cytotoxic effect (L-02 cells): much weaker | inhibitory activity against trypsin (trypsin): to neither enzyme, permethrin has inhibitory activity | mode of inhibition (furin [2]): non-competitive inhibitor | Km of furin on addition of inhibitor (furin [2]; permethrin 0, 25, 50, 100 μM): does not change | maximum reaction rate of furin on addition of inhibitor (furin [2]; permethrin 0, 25, 50, 100 μM): decreases | cytotoxic effect (HeLa cells): higher cytotoxic effect
